# Data taken from patent publication US7598260B2, “CDK-inhibitory pyrimidines, their production and use as pharmaceutical agents” (Bayer Schering Pharma Aktiengesellschaft, priority 2001, dated 2009).
# Like-named read-outs stand apart in the source and are kept apart here.
# Key:
# [1] = Solubility (Löslichkeit, g/l); assay type: physicochemical
# CDK2/CycE = target: T1, CDK2/CycE (Homo sapiens, UniProt P24941); assay: CDK2/CycE kinase assay (enzyme test); assay type: biochemical; settings: read-out: Inhibition IC50 [nM] CDK2/CycE
# T1 construct: GST; purchased Dr. Dieter Marmé, Klinik für Tumorbiologie, Freiburg; host or cells: baculovirus-infected Sf9 insect cells
# Method: Recombinant CDK2- and CycE-GST-fusion proteins, purified from baculovirus-infected insect cells (Sf9), are obtained by Dr. Dieter Marmé, Klinik für Tumorbiologie [Clinic for Tumor Biology], Freiburg. Histone IIIS, which is used as a kinase substrate, is purchased by the Sigma Company.
# The reaction was is stopped by adding EDTA solution (250 mmol, pH 8.0, 14 μl/measuring point).
# From each reaction batch, 10 μl applied to P30 filter strips (Wallac Company), and non-incorporated ^33P-ATP is removed by subjecting the filter strips to three washing cycles for 10 minutes each in 0.5% phosphoric acid. After the filter strips are dried for one hour at 70° C., the filter were are covered with scintillator strips (MeltiLex™ A, Wallac Company) and baked for one hour at 90° C. The amount of incorporated ^33P (substrate phosphorylation) is determined by scintillation measurement in a gamma-radiation measuring device (Wallac).
# MCF-7 cells = assay: Proliferation assay, crystal violet staining (cell test), MCF-7; assay type: cell-based; settings: Homo sapiens
# Method: (§1) Cultivated human tumor cells (as indicated) are flattened out at a density of 5000 cells/measuring point in a 96-hole multititer plate in 200 μl of the corresponding growth medium. After 24 hours, the cells of one plate (zero-point plate) are colored with crystal violet (see below), while the medium of the other plates is replaced by fresh culture medium (200 μl), to which the test substances are added at various concentrations (0 μm, as well as in the range of 0.01-30 μm; the final concentration of the solvent dimethyl sulfoxide is 0.5%). The cells are incubated for 4 days in the presence of test substances. The cell proliferation is determined by coloring the cells with crystal violet: the cells are fixed by adding 20 μl/measuring point of a 11% glutaric aldehyde solution for 15 minutes at room temperature. After three washing cycles of the fixed cells with water, the plates are dried at room temperature. The cells are colored by adding 100 μl/measuring point of a 0.1% crystal violet solution (pH is set at 3 by adding acetic acid). After three washing cycles of the colored cells with water, the plates are dried at room temperature. The dye is dissolved by adding 100 μl/measuring point of a 10% acetic acid solution. The extinction is determined by photometry at a wavelength of 595 nm. The change of cell growth, in percent, is calculated by standardization of the measured values to the extinction values of the zero-point plate (=0%) and the extinction of the untreated (0 μm) cells (=100%).
# [2] = tested on: human tumor cells (as indicated); assay: Proliferation assay, crystal violet staining, other human tumor cells as indicated in the tables; assay type: cell-based; settings: 4 days incubation
# Method: as §1
# [3] = 96 h, MCF7 cells, 4 days incubation, read-out: Proliferation IC50 [μM] MCF7
# [4] = MCF7, MCF-7 cells, comparison with known compounds, read-out: MCF-7 IC50
# [5] = NCI-H460, 96 h, H460 cells, read-out: Proliferation IC50 [μM] H460
# [6] = DU-145, 96 h, DU145 cells, read-out: Proliferation IC50 [μM] DU145
# [7] = HCT-116, 96 h, HCT116 cells, read-out: Proliferation IC50 [μM] HCT116
Structure (SMILES),Sw [1],IC50 (CDK2/CycE),IC50 (MCF-7 cells; [3]),other results
O=S(=O)(CCO)c1cccc(Nc2ncc(Br)c(NCCN3CCOCC3)n2)c1 [Example 18],0.039 g/L,2000 nM,–,–
"C#CCNc1nc(Nc2ccc(SC(F)F)cc2)ncc1Br [Example 23, 5-Bromo-N2-(4-difluoromethylthiophenyl)-N4-2-propynyl-2,4-pyrimidine diamine]",–,180 nM,3 µM,–
COC[C@H](C)Nc1nc(Nc2cccc(S(=O)(=O)CCO)c2)ncc1Br [Example 17],0.04 g/L,1000 nM,> 10 µM,–
"CC(C)[C@H](CO)Nc1nc(Nc2cccc(Cl)c2)c2ncn(C(C)C)c2n1 [Purvalanol A, reference compound]",–,–,–,IC50 (MCF-7 cells; [4]): 2 µM
"C#CCNc1nc(Nc2ccc(SC(F)(F)F)cc2)ncc1Br [Example 24, 5-Bromo-N4-2-propynyl-N2-(4-trifluoromethylthiophenyl)-2,4-pyrimidine diamine]",–,400 nM,5 µM,–
"C#CCOc1nc(Nc2ccc(O)cc2)ncc1Br [Example 6, 4-[[5-Bromo-4-(2-propynyloxy)-2-pyrimidinyl]amino]-phenol]",0.008 g/L,70 nM,4 µM,"IC50 [2, 5]: 6 µM"
C#CCOc1nc(Nc2cccc(O)c2)ncc1Br [Example 20],–,60 nM,4 µM,–
"C#CCNc1nc(Nc2ccc(O)cc2)ncc1Br [Example 5, 4-[[5-Bromo-4-(2-propynylamino)-2-pyrimidinyl]amino]-phenol]",0.043 g/L,90 nM,10 µM,–
NS(=O)(=O)c1ccc(Nc2ncc(Br)c(NC(CO)CO)n2)cc1 [Example 9],–,7 nM,0.9 µM,"Löslichkeit ([1]; comparison with known compounds): 0.009 g/L; IC50 (MCF-7 cells; [4]): 0.9 µM; IC50 [2, 6]: 3 µM; IC50 [2, 7]: 3 µM"
COC[C@H](C)Nc1nc(Nc2ccc(SC)cc2)ncc1Br [Example 12],–,400 nM,4 µM,–
C#CCNc1nc(Nc2cccc(S(=O)(=O)CCO)c2)ncc1Br [Example 21],–,400 nM,2 µM,–
O=S(=O)(CCO)c1cccc(Nc2ncc(Br)c(NC(CO)CO)n2)c1 [Example 19],0.041 g/L,800 nM,> 10 µM,–
"C#CCNc1nc(Nc2cccc(SC(F)(F)F)c2)ncc1Br [Example 35, 5-Bromo-N4-2-propynyl-N2-(3-trifluoromethylthiophenyl)-2,4-pyrimidine diamine]",–,120 nM,> 10 µM,–
Oc1ccc(Nc2ncc(Br)c(NCCN3CCOCC3)n2)cc1 [Example 2],–,700 nM,–,–
C#CCNc1nc(Nc2cccc(S(=O)(=O)NCCCC)c2)ncc1Br [Example 34],–,1800 nM,–,–
OCC(CO)Nc1nc(Nc2ccc(O)cc2)ncc1Br [Example 3],0.039 g/L,200 nM,8 µM,–

Structure (SMILES),Sw [1],IC50 (CDK2/CycE),IC50 (MCF-7 cells; [3]),other results
CC(C)[C@H](CO)Nc1nc(Nc2ccc(O)cc2)ncc1Br [Example 4],0.042 g/L,40 nM,8 µM,–
NS(=O)(=O)c1ccc(Nc2ncc(Br)c(NCCN3CCOCC3)n2)cc1 [Example 8],0.007 g/L,< 10 nM,4 µM,–
C#CCNc1nc(Nc2ccc(S(N)(=O)=O)cc2)ncc1Br [Example 11],–,6 nM,0.2 µM,"IC50 (MCF-7 cells; [4]): 0.2 µM; IC50 [2, 6]: 0.2 µM; IC50 [2, 7]: 0.3 µM; IC50 [2, 5]: 0.5 µM"
CSc1ccc(Nc2ncc(Br)c(N[C@@H](CO)C(C)C)n2)cc1 [Example 15],0.024 g/L,300 nM,> 10 µM,–
CC(C)[C@H](CO)Nc1nc(Nc2ccc(S(N)(=O)=O)cc2)ncc1Br [Example 10],–,4 nM,0.2 µM,"IC50 [2, 6]: 0.5 µM; IC50 [2, 7]: 0.5 µM; IC50 [2, 5]: 0.5 µM"
C#CCNc1nc(Nc2cccc(SC)c2)ncc1Br [Example 26],–,300 nM,3 µM,–
"Cn1cnc2c(NCc3ccccc3)nc(NCCO)nc21 [Olomoucine, reference compound]",–,–,–,IC50 (MCF-7 cells; [4]): 30 µM
CSc1ccc(Nc2ncc(Br)c(NC(CO)CO)n2)cc1 [Example 14],0.013 g/L,200 nM,3 µM,–
C#CCNc1nc(Nc2ccc(CP(=O)(OCC)OCC)cc2)ncc1Br [Example 31],0.0023 g/L,800 nM,7 µM,–
C#CCNc1nc(Nc2cccc(S(=O)(=O)C(F)(F)F)c2)ncc1Br [Example 27],–,> 10000 nM,–,–
"C#CCNc1nc(Nc2ccc(SC)cc2)ncc1Br [Example 16, 5-Bromo-N2-(4-methylthiophenyl)-N4-2-propynyl-2,4-pyrimidine diamine]",–,300 nM,3 µM,–
"O=C1Cc2c([nH]c3ccc([N+](=O)[O-])cc23)-c2ccccc2N1 [Alsterpaullone, reference compound]",–,–,–,IC50 (MCF-7 cells; [4]): 1.2 µM
"O=C1Cc2c([nH]c3ccc(Br)cc23)-c2ccccc2N1 [Kenpaullone, reference compound]",–,–,–,IC50 (MCF-7 cells; [4]): 6 µM
CSc1ccc(Nc2ncc(Br)c(NCCN3CCOCC3)n2)cc1 [Example 13],–,2000 nM,> 10 µM,–
COC[C@H](C)Nc1nc(Nc2ccc(O)cc2)ncc1Br [Example 1],–,300 nM,8 µM,–

# Further lines, with some results ahead:
Sw [1],IC50 (CDK2/CycE),IC50 (MCF-7 cells; [3]),Structure (SMILES),other results
0.0005 g/L,400 nM,–,CC(=O)c1ccc(Nc2ncc(Br)c(OCCCC(F)(F)F)n2)cc1 [Example 84],–
–,70 nM,8 µM,C#CCOc1nc(Nc2cccc(OCC3CO3)c2)ncc1Br (stereo not drawn) [Example 51],–
0.0005 g/L,200 nM,0.2 µM,CC(=O)c1ccc(Nc2ncc(Br)c(NCC3CC3)n2)cc1 [Example 52],"IC50 [2, 6]: 2 µM; IC50 [2, 7]: 1.2 µM; IC50 [2, 5]: 1.6 µM"
0.006 g/L,70 nM,4 µM,"C#CCNc1nc(Nc2ccc3[nH]ncc3c2)ncc1Br [Example 37, N-[5-Bromo-4-(2-propynylamino)-2-pyrimidinyl]-indazol-5-amine]",–
–,12 nM,0.7 µM,NS(=O)(=O)c1ccc(Nc2ncc(Br)c(OCCCC(F)(F)F)n2)cc1 [Example 47],"IC50 [2, 6]: 0.9 µM; IC50 [2, 7]: 1.3 µM; IC50 [2, 5]: 1.8 µM"
–,2000 nM,–,C#CCOc1nc(Nc2ccc(OCC(O)CN3CCN(c4ccccc4C#N)CC3)cc2)ncc1Br (stereo not drawn) [Example 98],–
0.044 g/L,50 nM,> 10 µM,NS(=O)(=O)c1ccc(Nc2ncc(Br)c(NCCCC(=O)O)n2)cc1 [Example 49],–
0.001 g/L,2000 nM,–,CCOC(=O)CCCNc1nc(Nc2ccc(C(C)=O)cc2)ncc1Br [Example 85],–
–,80 nM,> 10 µM,"C#CCNc1nc(Nc2ccc3scnc3c2)ncc1Br [Example 38, N-[5-Bromo-4-(2-propynylamino)-2-pyrimidinyl]-benzothiazole-5-amine]",–
–,400 nM,–,C#CCOc1nc(Nc2ccc(OCC(O)CN3CCN(Cc4ccc5c(c4)OCO5)CC3)cc2)ncc1Br (stereo not drawn) [Example 96],–
–,150 nM,–,"C#CCNc1nc(Nc2ccc(C(C)=O)cc2)ncc1Br [Example 50, 1-[4-[(5-Bromo-4-(2-propynylamino)-2-pyrimidinyl)amino]phenyl]-ethanone]",–
0.023 g/L,80 nM,4 µM,CC(=O)c1ccc(Nc2ncc(Br)c(N[C@@H](CO)C(C)C)n2)cc1 [Example 56],–
0.003 g/L,250 nM,0.8 µM,CC(=O)c1ccc(Nc2ncc(Br)c(NCCc3c[nH]cn3)n2)cc1 [Example 87],–
0.026 g/L,300 nM,1.6 µM,CC(=O)c1ccc(Nc2ncc(Br)c(N[C@H](CO)C(C)C)n2)cc1 [Example 53],–
–,3000 nM,–,CCOCCOCCOc1nc(Nc2ccc(C(C)=O)cc2)ncc1Br [Example 86],–
0.0069 g/L,7 nM,2 µM,NS(=O)(=O)c1ccc(Nc2ncc(Br)c(NCC3CC3)n2)cc1 [Example 46],–
0.0016 g/L,300 nM,–,C#CCNc1nc(Nc2ccc3c(c2)CCN3S(C)(=O)=O)ncc1Br [Example 39],–
